Reference: patent publication US10034883B2, “Mesoporous dosage forms for poorly soluble drugs” (SIEGFRIED AG, priority 2013, dated 2018)

Test: First trials dissolving rivaroxaban into Soluplus polymer
Type: physicochemical
Conditions: total API/Polymer ratio=0.1

Compound: O=C(NC[C@H]1CN(c2ccc(N3CCOCC3=O)cc2)C(=O)O1)c1ccc(Cl)s1 [rivaroxaban]
- maximum amount of rivaroxaban dissolvable into Soluplus: ≤ 10%
